Reference: US20090054507A1, “CONTROL OF MALIGNANT CELLS BY KINASE INHIBITION” (CLEVELAND STATE UNIVERSITY, priority 2006, published 2009)
“Also recorded” adds a separate entry of the source.

How the values were obtained:
MEG-01 xenografts [1] = assay: Blood counts in MEG-01 xenograft mice; assay type: in vivo
Protocol: (§1) At the end of the trial, tail-bleeding times assay was performed and blood was collected for blood counts from live and anesthetized mice. After these experiments were completed mice were sacrificed and tumors and organs were collected. Samples were fixed in formalin for further processing.
Mice blood collection and blood counts. Blood counts are dependent upon the method and time of blood collection. Whole blood was collected from the retro-orbital sinus (under the eye) of anesthesiated mice (both DMSO treated and DMAT treated batch). EDTA and prostaglandin E1 (PGE1) were used at collection to prevent clotting during blood collection. 500 μl mice whole blood with 100 μl anticoagulant were used for counting (a 1:5 dilution). A hematological analyzer was used for this. Samples were compared (gated) with normal mice (C57BL strain).

MEG-01 xenografts [2] = assay: Tail-bleeding assay in MEG-01 xenograft mice; assay type: in vivo; conditions: DMAT treated xenograft mice vs normal mice or control mice
Protocol: as §1
Tail-bleeding assay. Tail-bleeding times are important to investigate whether the platelets could establish hemostasis in vivo. Platelet aggregation and clot retraction in response to physiologic agonists adenosine diphosphate (ADP), epinephrine, and thrombin will affect tail-bleeding times.
Normal tail-bleeding times are an average of 1.5-2 minutes in C57BL mouse strain.
Pre-warm tubes of saline (PBS) at 37° C. and maintained at this temperature during the measurements were used. Inhalation of isoflurane vapor or, alternatively, intraperitoneal injection of avertin was used to induce general anesthesia. Using a sharp new razor or scalpel blade, tails were cut exactly 0.5 cm of the distal tip of the tail of the adult mouse and immediately inserted into the pre-warmed tube of saline. A stopclock was started at this time. The tail was hold gently, near its base, to avoid a “tourniquet effect.” Venous blood flowing into the tube can be observed and can it can be detected when this bleeding stops. The stopclock provides an accurate bleeding time.

MCF-7 cells = assay: Proliferation assay in vitro, MCF-7; assay type: cell-based, human; conditions: five days
Description: (§2) Viability (proliferation) assay, Trypan blue exclusion. Cells were counted using a Neubauer hemacytometer.

SW-480 cells [3] = assay: Proliferation assay in vitro, SW-480; assay type: cell-based, human; conditions: four days
Description: as §2

SW-480 cells [4] = assay: Annexin V apoptosis/necrosis assay, SW-480; assay type: cell-based, human
Protocol: Apoptosis Assays using Flow Cytometry with Annexin V-FITC and propidium iodide (PI). For induction of typical apoptosis, cells were grown in the presence of 1 μM staurosporine (Sigma-Aldrich) for 6 hours. The staurosporine treated cells were stained as follows: control 1 with PI, control 2 with Annexin V-FITC and control 3 both PI and Annexin V-FITC in order to have the brightest controls for compensation and proper collection of the flow cytometry data. Cell necrosis was induced by heat shock (65° C. for 30 minutes). The stained control, both PI and Annexin V-FITC labeled, was then used as the reference in establishing the level of apoptosis induced by the treatments. Data was collected on logarithmic modes, two-colors. Annexin V-FITC corresponds to FL1 H channel, and PI to FL3H or FL2H channels.
Annexin V-FITC and PI apoptosis assay staining protocol. Apoptosis Annexin V-FITC and PI kit from BD Biosciences, CA, USA, was used. 10^5-10^6 cells were stained with 50 μg/ml PI and with 0.5 μg/ml FITC-labeled Annexin V using the staining protocol provided by the supplier. Samples were then analyzed immediately by flow cytometry.

tumors of U-87 cells = assay: Murine xenograft of U-87 cells, tumor volume; assay type: in vivo, mice; conditions: DMAT at effective dosage levels (in DMSO) per animal per day, approximately 24 days
Protocol: FIG. 96 illustrates the effect of administration of DMAT as compared to a control, i.e. DMSO, for a period of approximately 24 days. FIG. 96 is a graph of a murine xenograft treated with DMAT, compared to a control. Mice with tumors of U-87 cells were treated with DMAT at effective dosage levels (in DMSO) per animal per day. The daily animal weight was averaged at 32.5 g at the start of treatment. Tumors were measured daily and tumor volumes were calculated based upon a prolate spheroid model. FIG. 96 illustrates the significant benefits of treatment with DMAT (squares) as compared to the control (diamonds).

SMILES: CN(C)c1nc2c(Br)c(Br)c(Br)c(Br)c2[nH]1 [DMAT, 2-dimethylamino-4,5,6,7-tetrabromo-1H-benzimidazole]
- platelet counts (MEG-01 xenografts [1]; DMAT 50 μl/day of 125 mg, compared to a control): increase in platelet counts
- percentage of abnormal cells in blood counts (MEG-01 xenografts [1]; DMAT treated vs DMSO control): the control has higher percentages of abnormal cells
- tail bleeding times (MEG-01 xenografts [2]): in certain instances, longer
- cell counts (MCF-7 cells; 10 μM DMAT): cell counts between the control and the MCF-7 cells treated with 20 μM
- cell counts / proliferation (MCF-7 cells; 20 μM DMAT): lowest cell counts; also recorded: proliferation arrest
- cell counts (SW-480 cells [3]; 10 μM DMAT): cell counts between the control and the SW-480 cells treated with 20 μM
- cell counts / proliferation (SW-480 cells [3]; 20 μM DMAT): lowest cell counts; also recorded: proliferation arrest
- level of apoptotic cells (SW-480 cells [4]; 10 μM DMAT, 24 hours, control 1.9%): 17.5%
- level of necrotic cells (SW-480 cells [4]; 10 μM DMAT, 24 hours, control 3.5%): 1.9%
- level of apoptotic cells (SW-480 cells [4]; 20 μM DMAT): 27.6%
- level of necrotic cells (SW-480 cells [4]; 20 μM DMAT): 2.4%
- tumor growth vs untreated control (tumors of U-87 cells): significantly less cancerous growth
